This passage reports LD50 and IC50 results from US5190946A, “Methods and compounds” (Hoffmann-La Roche Inc., priority 1990, dated 1993).

Data set [1] is described as follows: toxicity, LD50 i.p. after administration of a single dose to mice. Conditions: mouse, in vivo, ip, read-out: T: toxicity, LD50. The source says:
For some of these compounds, the Table also contains toxicity data ("T", LD50, mg/kg i.p. after administration of a single dose to mice).

For data set [2], the system named is adriamycin-resistant subline (P388/ADR). Kind of data set: inhibition of growth rate of adriamycin-resistant subline P388/ADR. To be noted: P388/ADR cells, compound alone, read-out: B: IC50 for the adriamycin-resistant subline (P388/ADR). The data set is classed as cell-based, murine. The source says:
Such cancer cells are characterized by the fact that they are resistant to a large variety of anti-tumour agents and thus become extremely and increasingly difficult to treat. The compounds of formula I, including those described in British Patent Specification No. 883013, and salts thereof lower this resistance and thus greatly increase the effectiveness of drugs conventionally used in chemotherapy. Such properties can be tested according to the method described in Br. J. […] The Table which follows sets forth for a representative number of compounds of formula I B: the IC50 for the adriamycin-resistant subline (P388/ADR); and […]

Data set [3] deals with P388/ADR cells. Kind of data set: inhibition of P388/ADR cells in the presence of a subtoxic concentration of adriamycin (restoring drug sensitivity). The data set is classed as cell-based, murine. To be noted: Mus musculus. An excerpt: (§1) Such cancer cells are characterized by the fact that they are resistant to a large variety of anti-tumour agents and thus become extremely and increasingly difficult to treat. […] Such properties can be tested according to the method described in Br. J.

For data set [4], the system named is P388 murine leukemia cells. Put plainly: inhibition of growth rate of P388 cells. To be noted: Mus musculus. The class given is cell-based.
From the text: as §1

Where [5] appears, read: P388/ADR, read-out: C: IC50 for P388/ADR cells, measured in the presence of a subtoxic concentration of adriamycin, P388/ADR cells, with adriamycin 0.2 μM.
Setting [6] is: P388, read-out: A: concentration for inhibiting the growth rate of P388 cells by 50% (IC50), P388 cells, compound alone.
[7] abbreviates: P388/ADR cells, with adriamycin 0.2 μM, read-out: C: IC50 for P388/ADR cells, measured in the presence of a subtoxic concentration of adriamycin.
Where [8] appears, read: P388 cells, compound alone, read-out: A: concentration for inhibiting the growth rate of P388 cells by 50% (IC50).

Structures are written as SMILES. pIC50: −log10 of the molar value. Structures can show the parent of a compound that is named as a salt. Where two headings read alike, the source gives them in different places.

By LD50 is commonly meant the dose expected to kill half of the subjects tested. On to `CCC(C(=O)OCCN1CCN(CCOC(=O)C(CC)c2ccccc2)CC1)c1ccccc1.Cl.Cl` (centres unmarked) [Compound 480, N,N'-bis[2-(2-phenyl-2-ethylacetoxy)ethyl]piperazine dihydrochloride], for which the LD50 in data set [1] was in the range of 100 to 200 mg/kg. In addition, the pIC50 in data set [2] (Mus musculus, P388/ADR) is 4.22; in data set [2] (dihydrochloride) it was 4.35.

For `CCC(C(=O)OCCN1CCN(CCC(=O)Nc2c(C)cccc2C)CC1)c1ccccc1` (centres unmarked) [Compound 1774, 3-[1-(2-Phenyl-2-ethylacetoxy)ethyl-4-piperazino]propion-2,6-dimethylanilide dihydrochloride], the pIC50 in data set [3] (setting [5]) is 5.92; in data set [4] (setting [6]) it was less than 4.22; in data set [2] (Mus musculus, P388/ADR) it was less than 4.22. Further, in data set [1], the 50% lethal dose (LD50) is roughly 200 mg/kg.

On to `CCC(C(=O)OCCN1CCN(CCOC(=O)C(CC)c2ccccc2F)CC1)c1ccccc1F` (centres unmarked) [Compound 1775, N,N'-bis[2-[2-(2-fluorophenyl)-2-ethylacetoxy]ethyl]piperazine dihydrochloride], for which the pIC50 in data set [3] (setting [7]) is 5.82; in data set [4] (setting [8]), 4.22; in data set [2] (Mus musculus, P388/ADR), 4.22.

Take `CCC(C(=O)OCCN1CCN(CCOC(=O)C(CC)c2ccccc2C)CC1)c1ccccc1C.Cl.Cl` (centres unmarked) [Compound 1776, N,N'-bis[2-[2-(2-methylphenyl)-2-ethylacetoxy]ethyl]piperazine dihydrochloride]: the pIC50 is 6.10 in data set [3] (setting [5]); 4.52 in data set [4] (setting [6]); 4.52 in data set [2] (Mus musculus, P388/ADR). The 50% lethal dose (LD50) in data set [1] lay within 200 to 400 mg/kg.

Consider `CCC(C(=O)OCCN1CCN(CCOC(=O)C(CC)c2ccc(F)cc2)CC1)c1ccc(F)cc1` (centres unmarked) [Compound 1777, N,N'-bis[2-[2-(4-fluorophenyl)-2-ethylacetoxy]ethyl]piperazine dihydrochloride], for which the pIC50 in data set [3] (setting [7]) was 5.92; in data set [4] (setting [8]), 4.22; in data set [2] (Mus musculus, P388/ADR), 4.22.

As for `CCC(C(=O)OCCN1CCN(CCOC(=O)C(CC)c2ccc(Cl)cc2)CC1)c1ccc(Cl)cc1` (centres unmarked) [Compound 1778, N,N'-bis[2-[2-(4-chlorophenyl)-2-ethylacetoxy]ethyl]piperazine dihydrochloride], the pIC50 was 6.00 in data set [3] (setting [7]); 4.52 in data set [4] (setting [8]); 4.70 in data set [2] (Mus musculus, P388/ADR).

`CCC(C(=O)OCCN1CCN(CCOC(=O)C(CC)c2ccccc2Cl)CC1)c1ccccc1Cl` (centres unmarked) [Compound 1779, N,N'-bis[2-[2-(2-chlorophenyl)-2-ethylacetoxy]ethyl]piperazine dihydrochloride]: the pIC50 is 6.00 in data set [3] (setting [7]); 4.22 in data set [4] (setting [8]); 4.40 in data set [2] (Mus musculus, P388/ADR).

On to `CCC(C(=O)OCCN1CCN(CCOC(=O)C(CC)c2ccc(OC)c(OC)c2)CC1)c1ccc(OC)c(OC)c1.Cl.Cl` (centres unmarked) [Compound 1835, N,N'-bis[2-[2-(3,4-dimethoxyphenyl)-2-ethylacetoxy]ethyl]piperazine dihydrochloride], for which the pIC50 in data set [3] (setting [5]) was 5.92; in data set [4] (setting [6]) it was 3.92; in data set [2] (Mus musculus, P388/ADR), 3.92. For the same compound, the 50% lethal dose (LD50) in data set [1] is roughly 200 mg/kg.

Consider `CCCC(C(=O)OCCN1CCN(CCOC(=O)C(CCC)c2ccccc2)CC1)c1ccccc1` (centres unmarked) [Compound 1838, N,N'-bis[2-(2-n-propyl-2-phenylacetoxy)ethyl]piperazine], for which the pIC50 was 6.70 in data set [3] (setting [5]); 4.70 in data set [4] (setting [6]); 4.70 in data set [2] (Mus musculus, P388/ADR). Besides, the LD50 in data set [1] fell in the range of 200 to 400 mg/kg.

As to `O=C(OCCN1CCN(CCOC(=O)C(c2ccccc2)c2ccccc2)CC1)C(c1ccccc1)c1ccccc1` [Compound 1839, N,N'-bis(2-diphenylacetoxyethyl)piperazine], the pIC50 in data set [3] (setting [5]) was 6.70; in data set [4] (setting [6]) it was less than 4.22; in data set [2] (Mus musculus, P388/ADR), less than 4.22. Further, the median lethal dose (LD50) in data set [1] is 200 to 400 mg/kg.

As for `CCC(C(=O)OCCCN1CCN(CCCOC(=O)C(CC)c2ccccc2)CC1)c1ccccc1` (centres unmarked) [Compound 1843, N,N'-bis[3-(2-phenyl-2-ethylacetoxy)propyl]piperazine], the pIC50 in data set [3] (setting [7]) is 6.35; in data set [4] (setting [8]) it was 5.15; in data set [2] (Mus musculus, P388/ADR) it was 5.10.

For the compound `CCCCC(C(=O)OCCN1CCN(CCOC(=O)C(CCCC)c2ccc(OC)c(OC)c2)CC1)c1ccc(OC)c(OC)c1` (centres unmarked) [Compound 1849, N,N'-bis[2-[2-n-butyl-2-(3,4-dimethoxyphenyl)acetoxy]ethyl]piperazine dihydrochloride], the pIC50 in data set [3] (setting [7]) is 6.70; in data set [4] (setting [8]), 4.92; in data set [2] (Mus musculus, P388/ADR) it was 5.00.

For the compound `CCCC(C(=O)OCCN1CCN(CCOC(=O)C(CCC)c2ccc(OC)c(OC)c2)CC1)c1ccc(OC)c(OC)c1` (centres unmarked) [Compound 1850, N,N'-bis[2-[2-(3,4-dimethoxyphenyl)-2-propylacetoxy]ethyl]piperazine dihydrochloride], the pIC50 in data set [3] (setting [7]) was 6.70; in data set [4] (setting [8]) it was 4.70; in data set [2] (Mus musculus, P388/ADR), 4.70.

For `Cc1cccc(C)c1NC(=O)CCN1CCN(CCOC(=O)C(c2ccccc2)c2ccccc2)CC1` [Compound 1853, 3-[1-(2-diphenylacetoxyethyl)-4-piperazino]propion-2,6-dimethylanilide dihydrochloride], the pIC50 in data set [3] (setting [7]) is 5.92; in data set [4] (setting [8]) it was 4.22; in data set [2] (Mus musculus, P388/ADR) it was 4.22.

With `CC(C(=O)OCCN1CCN(CCOC(=O)C(C)(c2ccccc2)c2ccccc2)CC1)(c1ccccc1)c1ccccc1` [Compound 1854, N,N'-bis[2-(2,2-diphenyl-2-methylacetoxy)ethyl]piperazine dihydrochloride], the pIC50 in data set [3] (setting [7]) was 6.70; in data set [4] (setting [8]), 4.70; in data set [2] (Mus musculus, P388/ADR) it was 4.35.
